# Test results reported in ChEMBL document CHEMBL3046798 (J Agric Food Chem, 2010).
# How the values were obtained:
# [1] = Toxicity in Rattus norvegicus (rat); settings: in vivo
# [2] = Drug level in Solanum lycopersicum (tomato) green seeds measured 120 days post dose following field application at 2 kg of active ingredient/hectare
# [3] = Drug level in Solanum lycopersicum (tomato) green seeds measured 100 days post dose following field application at 2 kg of active ingredient/hectare
# [4] = Drug level in Solanum lycopersicum (tomato) green seeds measured 90 days post dose following field application at 2 kg of active ingredient/hectare
# [5] = Drug level in Solanum lycopersicum (tomato) green seeds measured 120 days post dose following field application at 1 kg of active ingredient/hectare
# [6] = Drug level in Solanum lycopersicum (tomato) green seeds measured 100 days post dose following field application at 1 kg of active ingredient/hectare
# [7] = Drug level in Solanum lycopersicum (tomato) green seeds measured 90 days post dose following field application at 1 kg of active ingredient/hectare
# [8] = Drug level in Cicer arietinum (chickpea) green seeds measured 120 days post dose following field application at 2 kg of active ingredient/hectare
# [9] = Drug level in Cicer arietinum (chickpea) green seeds measured 100 days post dose following field application at 2 kg of active ingredient/hectare
# [10] = Drug level in Cicer arietinum (chickpea) green seeds measured 90 days post dose following field application at 2 kg of active ingredient/hectare
# [11] = Drug level in Cicer arietinum (chickpea) green seeds measured 120 days post dose following field application at 1 kg of active ingredient/hectare
# [12] = Drug level in Cicer arietinum (chickpea) green seeds measured 100 days post dose following field application at 1 kg of active ingredient/hectare
# [13] = Drug level in Cicer arietinum (chickpea) green seeds measured 90 days post dose following field application at 1 kg of active ingredient/hectare
# [14] = Cmax in Cicer arietinum (chickpea) shoots measured 45 days post dose following field application at 1 and 2 kg of active ingredient/hectare; assay type: ADME, Shoot; settings: other: field application
# Root [15] = assay: Drug translocation in Solanum lycopersicum (tomato) roots assessed as mean drug level measured post dose following field application at 1 and 2 kg of active ingredient/hectare
# Root [16] = assay: Drug absorption in Solanum lycopersicum (tomato) roots assessed as mean drug level measured post dose following field application at 1 and 2 kg of active ingredient/hectare
# [17] = Drug level in Solanum lycopersicum (tomato) roots measured 15 days post dose following field application at 1 and 2 kg of active ingredient/hectare; assay type: ADME, Root; settings: other: field application, read-out: Drug uptake
# [18] = Drug level in Cicer arietinum (chickpea) roots measured 15 days post dose following field application at 1 and 2 kg of active ingredient/hectare; assay type: ADME, Root; settings: other: field application, read-out: Drug uptake
# Rotylenchulus reniformis [19] = assay: Nematicidal activity against Rotylenchulus reniformis (reniform nematode) infested tomato plants plots assessed as reduction in nematode population measured 110 days post dose following field application at 1 to 2 kg of active ingredient/hectare; assay type: functional; design: scale not given: the % may be the effect or the level left
# Rotylenchulus reniformis [20] = assay: Nematicidal activity against Rotylenchulus reniformis (reniform nematode) infested in tomato plants plots assessed as reduction in nematode population measured 55 days post dose following field application at 1 to 2 kg of active ingredient/hectare; assay type: functional; design: scale not given: the % may be the effect or the level left
# Rotylenchulus reniformis [21] = assay: Nematicidal activity against Rotylenchulus reniformis (reniform nematode) infested chickpea plants plots assessed as reduction in nematode population measured 110 days post dose following field application at 1 to 2 kg of active ingredient/hectare; assay type: functional; design: scale not given: the % may be the effect or the level left
# Rotylenchulus reniformis [22] = assay: Nematicidal activity against Rotylenchulus reniformis (reniform nematode) infested chickpea plants plots assessed as reduction in nematode population measured 55 days post dose following field application at 1 to 2 kg of active ingredient/hectare; assay type: functional; design: scale not given: the % may be the effect or the level left
# Meloidogyne incognita [23] = assay: Nematicidal activity against root-knot nematode Meloidogyne incognita J2 (root-knot nematode) infested tomato plants plots assessed as reduction in nematode population measured 110 days post dose following field application at 1 to 2 kg of active ingredient/hectare; assay type: functional; design: scale not given: the % may be the effect or the level left
# Meloidogyne incognita [24] = assay: Nematicidal activity against root-knot nematode Meloidogyne incognita J2 (root-knot nematode) infested chickpea plants plots assessed as reduction in nematode population measured 110 days post dose following field application at 1 to 2 kg of active ingredient/hectare; assay type: functional; design: scale not given: the % may be the effect or the level left
# Meloidogyne incognita [25] = assay: Nematicidal activity against root-knot nematode Meloidogyne incognita J2 (root-knot nematode) infested tomato plants plots assessed as reduction in nematode population measured 55 days post dose following field application at 1 to 2 kg of active ingredient/hectare; assay type: functional; design: scale not given: the % may be the effect or the level left
# Meloidogyne incognita [26] = assay: Nematicidal activity against root-knot nematode Meloidogyne incognita J2 (root-knot nematode) infested chickpea plants plots assessed as reduction in nematode population measured 55 days post dose following field application at 1 to 2 kg of active ingredient/hectare; assay type: functional; design: scale not given: the % may be the effect or the level left
# [27] = Cmax in Solanum lycopersicum (tomato) shoots measured 30 days post dose following field application at 1 and 2 kg of active ingredient/hectare; assay type: ADME, Shoot; settings: other: field application
# [28] = Cmax in Cicer arietinum (chickpea) shoots measured 15 days post dose following field application at 1 and 2 kg of active ingredient/hectare; assay type: ADME, Shoot; settings: other: field application
# [29] = Drug absorption in Solanum lycopersicum (tomato) roots measured 30 days post dose following field application at 1 and 2 kg of active ingredient/hectare
# in vivo [30] = settings: solanum lycopersicum
# [31] = Drug absorption in Cicer arietinum (chickpea) roots measured 45 days post dose following field application at 1 and 2 kg of active ingredient/hectare; settings: Root
# in vivo [32] = settings: cicer arietinum, Shoot
SMILES,LD50 [1],solubility (physchem; buffer),concentration at 2880 h [2],concentration at 2400 h [3],concentration at 2160 h ([4]; green seeds),concentration at 2880 h [5],concentration at 2400 h [6],concentration at 2160 h ([7]; green seeds),concentration at 2400 h ([9]; green seeds),concentration at 2160 h ([10]; green seeds),Drug transport (Root [15]),Drug absorption (Root [16]),Activity (Rotylenchulus reniformis [19]),Activity (Rotylenchulus reniformis [20]),Activity (Rotylenchulus reniformis [21]),Activity (Rotylenchulus reniformis [22]),Activity (Meloidogyne incognita [23]),Activity (Meloidogyne incognita [24]),Activity (Meloidogyne incognita [25]),Activity (Meloidogyne incognita [26]),further results
CNC(=O)Oc1cccc2c1OC(C)(C)C2 [CARBOFURAN],8 mg/kg,700 µg/mL,–,–,–,–,–,–,–,–,–,–,–,–,–,–,–,–,–,–,–
CCOP(=S)(OCC)SCSCC [PHORATE],3.2 mg/kg,–,4 ng/g,14 ng/g,22 ng/g,3 ng/g,10 ng/g,14 ng/g,19 ng/g,56 ng/g,0.41 µg/g,1.45 µg/g,45%,36%,0.9%,28%,17%,1%,45%,44%,concentration at 2880 h [8]: 6 ng/g; concentration at 2880 h [11]: 3 ng/g; concentration at 2400 h ([12]; green seeds): 8 ng/g; concentration at 2160 h ([13]; green seeds): 20 ng/g; Cmax [14]: 680 ng/g; concentration at 360 h [17]: 1690 ng/g; concentration at 360 h [18]: 2310 ng/g; solubility (physchem; water): 50 µg/mL
CCOP(=O)(NC(C)C)Oc1ccc(SC)c(C)c1 (stereo unspecified) [PHENAMIPHOS],16 mg/kg,–,–,–,–,–,–,–,–,–,–,–,–,–,–,–,–,–,–,–,–
CCOP(=O)(SC(C)CC)SC(C)CC (stereo unspecified) [CADUSAFOS],37.1 mg/kg,248 µg/mL,3 ng/g,10 ng/g,40 ng/g,2 ng/g,6 ng/g,21 ng/g,5 ng/g,16 ng/g,0.25 µg/g,2.18 µg/g,83%,39%,45%,49%,60%,79%,57%,66%,"concentration at 2400 h ([12]; green seeds): 3 ng/g; concentration at 2160 h ([13]; green seeds): 9 ng/g; Cmax [27]: 440 ng/g; Cmax [28]: 340 ng/g; concentration at 720 h ([29]; roots, other: field application): 3230 ng/g"
CCCCN(CCCC)SN(C)C(=O)Oc1cccc2c1OC(C)(C)C2 [CARBOSULFAN],209 mg/kg,–,–,–,–,–,–,–,–,–,9.52 µg/g,0.36 µg/g,59%,23%,23%,37%,45%,15%,52%,33%,"Cmax [14]: 24800 ng/g; concentration at 360 h [18]: 530 ng/g; Cmax at 1080 h (in vivo [30]; shoots, other: field application): 31600 ng/g"
CCOP(=S)(OCC)Oc1ncn(-c2ccccc2)n1 [TRIAZOPHOS],68 mg/kg,30 µg/mL,–,–,–,–,–,–,–,–,–,–,31%,30%,30%,38%,38%,44%,55%,63%,concentration at 2160 h [4]: 4 ng/g; concentration at 2160 h [7]: 2 ng/g; concentration at 2400 h [9]: 7 ng/g; concentration at 2160 h [10]: 18 ng/g; concentration at 2400 h [12]: 4 ng/g; concentration at 2160 h [13]: 11 ng/g; Drug transport (Root [15]; Root): 0.14 µg/g; Drug absorption (Root [16]; Root): 2.77 µg/g; concentration at 1080 h [31]: 1720 ng/g; concentration at 720 h ([29]; Root): 7220 ng/g; Cmax at 720 h (in vivo [32]): 250 ng/g; Cmax at 1080 h (in vivo [30]; Shoot): 630 ng/g
